In patent US8426203B2, “Culture medium containing gamma-aminobutyric acid, pipecolic acid or lithium for the maintenance of stem cells in an undifferentiated state” (Wisconsin Alumni Research Foundation, priority 2004, dated 2013):

How the values were obtained:
[1] = system: human pluripotent stem cells; assay: Omission of medium components, Oct-4 expression after seven days; assay type: cell-based; settings: for effect of omitting constituent on percentage of undifferentiated cells: Oct-4 expression
Method: While a medium with all of the above constituents is sufficient and is preferred, not all of the components are necessary for the successful culture of human pluripotent stem cells. Depending on the amount of differentiated cells one is willing to tolerate, some of the components of the medium can be omitted, particularly if the medium is only used for a few passages. To further explore which constituents might be omitted, human pluripotent stem cells were cultured on variants of the above medium with differing components omitted. Two hundred thousand cells were plated and grown for seven days on each experimental medium, two wells per treatment. The cells were then assayed for expression of the transcription factor Oct-4, a recognized marker of undifferentiated cells.
The data from that experiment are presented graphically in FIG. 7, where the numbers of Oct-4 expressing cells in each experimental medium are presented as a fraction of that from the preferred medium TeSR1. […] The difference between the percentage of undifferentiated cells and the omitted constituent is quantitative. Regardless of the omitted constituent, the medium does work, at least to some degree for limited cell passages, without each of the omitted components.

[2] = system: human ES cells; assay: TeSR1 minus individual components, growth curve and FACS over three passages; assay type: cell-based
Method: FIG. 4 is a graphical representation of data showing that the medium described here results in robust growth of pluripotent stem cells in culture. Specifically, what is shown is growth curve analysis for human ES cells cultured in complete TeSR1 (positive control), and TeSR1 minus the following individual components: TGFβ, pipecolic acid (PA), GABA, LiCl and bFGF, and TeSR1 minus all five growth factors (TeSR1—ALL or negative control); 3×10^5 cells were plated at day 0 of each passage.
Triplicate wells of resulting cells were analyzed on day 6 of passage 3 by FACS for human ES cell markers. All results are presented for the H1 cell line; similar results were obtained for cell lines H7, H9 and H14.
Inventors used human ES cell lines H1, H7, H9 and H14 (Thomson, J. A. et al. Science 282, 1145-1147 (1998)) in a program of human ES cell media optimization that included modifications to the physiochemical environment, growth factor supplements and matrix components. To accomplish this, human ES cell lines H1, H7, H9, and H14 were cultured on Matrigel (Becton Dickinson) in fibroblast-conditioned medium as previously described (Xu, C. et al. Nature Biotechnology 19, 971-974 (2001)). Cells were transitioned into test media by direct passage from conditioned medium. Cultures of human ES cells were routinely passaged in clumps at approximately weekly intervals onto Matrigel or human matrix-coated plates by exposure to dispase (2.0 or 0.5 mg/ml respectively: Invitrogen). Following 7 minutes of dispase exposure, cells were rinsed 3 (three) times on the plate with medium, followed by gentle scraping to collect. Colonies were further broken up by gentle pipetting and then plated. The human matrix-coated plates were composed of 10 μg/cm^2 human collagen IV (Sigma or Becton Dickinson), 0.2 μg/cm^2 human vitronectin (Sigma), 5 μg/cm^2 human fibronectin (Sigma or Becton Dickinson) and 5 μg/cm^2 human laminin (Sigma). During the course of these studies we successfully used 4 lots of fibronectin, 2 lots of collagen, 3 lots of laminin, and 3 lots of vitronectin. For growth curve proliferation studies, 3-5×10^5 cells were plated on Day 0 of each passage into conditioned medium, TeSR1 or TeSR1 minus the following components: TGFβ, PA, GABA, LiCl and bFGF. Cells were cultured for three passages. Cells were harvested on Day 2-3 and Day 6-7 and counted using a Trypan Blue exclusion assay. At the end of passage three, cells were individualized by treatment with trypsin/EDTA and were analyzed by FACS for human ES cell markers Oct-4, SSEA-4, Tra 1-60 and Tra 1-81 as subsequently described.

[3] = system: ES03-DL1-K hES cells; assay: Cloning efficiency at different BME concentrations in TeSR1; assay type: cell-based, human
Method: FIG. 15 illustrates the growth of hES cells grown in mTeSR1 with five different concentrations of beta mercaptoethanol (βME). ES03-DL1-K were grown for one to five passages, visualized (a), counted to determine proliferation and cloning efficiency (b), and stained using […] for Oct-4 and SSEA-4 to identify differentiation status of the cells (c). The treatment concentrations consisted of 0, 1.75, 3.5, 7, and 14 μL βME/500 mL of total TeSR1 media. Results shown are the mean from growth in 3 wells/treatment. This experiment was repeated multiple times both with ES03-DL1-K and H9-WA09 cells with similar results.
Specifically, to optimize the physiochemical environment, human ES cells with an EGFP reporter gene and a neomycin resistance cassette under control of the endogenous Oct-4 gene were utilized for the physiochemical optimization assays. […] At the end of the growth period, cells from independent wells were individualized by treatment with trypsin/EDTA, counted and subjected to FACS analysis as subsequently described. To determine cloning efficiency of the cells, resulting colonies were stained with BCIP/NTB alkaline phosphatase substrate kit IV (Vector Laboratories) and counted. Percentages were determined by dividing colony number obtained by the initial number of cells plated. […]

Row | Compound | effect of omitting constituent on percentage of undifferentiated cells [1] | effect of removal from TeSR1 on total cell number and percentage of cells expressing ES cell markers [2] | effect of removal of the factor from TeSR1 on culture performance [2] | cloning efficiency of the cells ([3]; 0 and 1.75 μL BME/500 mL of total media, modified TeSR1) | increase in cloning efficiency ([3]; BME omitted or less than about 0.1 mM in TeSR1 vs same medium with higher than about 0.1 mM BME) | necessity of component (Oct-4 expressing cells as fraction of TeSR1) ([1]; short-term culture, high levels of FGF)
1 | bFGF: fibroblast growth factor, also referred to as FGF2 | increased percentages of undifferentiated cells | consistently decreased | significantly decreased some parameter of culture performance | – | – | –
2 | NCCCC(=O)O [GABA, gamma-aminobutyric acid] | increased percentages of undifferentiated cells | – | significantly decreased some parameter of culture performance | – | – | –
3 | [Cl-].[Li+] [LiCl, lithium chloride] | increased percentages of undifferentiated cells | – | significantly decreased some parameter of culture performance | – | – | –
4 | O=C(O)C1CCCCN1 (stereo not shown) [PA, pipecolic acid] | increased percentages of undifferentiated cells | – | significantly decreased some parameter of culture performance | – | – | –
5 | OCCS [BME, β-mercaptoethanol] | – | – | – | large increases in cloning efficiency | at least 10% | –
6 | TGFβ: transforming growth factor beta | – | – | significantly decreased some parameter of culture performance | – | – | least necessary component
